Results published in US20210024985A1, “Devices and Methods Useful for Imaging Transient and Rare Mechanical Events in Cells” (Emory University, priority 2019, published 2021).
Like-named read-outs stand apart in the source and are kept apart here. Values belong to the molecule of their own block, whether it stands above or below them.

Columns and labels:
TCR [1] = conditions: independent of CD8, cited from earlier work
TCR [2] = assay: TCR tension imaging of naïve OT-1 cells in real-time and locked state (mechanical sampling and scanning); type: cell-based
Method: Mechano-locking enhances TCR-pMHC tension signals by accumulating pulling events that are >4.7 pN. The degree of enhancement and dynamics were evaluated. OT-1 T cells were allowed to engage real-time tension probes and then incubated with unlabeled locking strand (200 nM). The unlabeled locking strand was beneficial here because it eliminated bleed-through from the Atto647N tag. Additionally, avoiding the rinsing steps accelerates the experiments and reduces perturbation of cells.
A time course for TCR-N4 pMHC tension signal accumulation for three cells upon addition of the locking strand was imaged. […] Tension occupancy, which is the fraction of the cell contact area showing tension signal, reached 91% in 10 min. The tension occupancy is an indication of the area that is mechanically scanned by the TCR with F >4.7 pN in search for antigen.
T cells mechanically sample their cognate and near cognate ligands over time. […]
The signal accumulation levels differed when cells were presented with antibody, cognate pMHC, and altered peptide ligands. To quantify these differences on a per cell basis, two parameters were defined: the mechanical sampling factor, which is the fold enhancement in integrated tension signal; and the mechanical scanning factor, which reflects the fold increase in tension occupancy (FIG. 3B). […]

[3] = system: MTFM hairpin tension probe (stem-loop DNA hairpin); assay: Hybridization of locking strand to folded MTFM probe versus unstructured single stranded DNA on model surfaces; type: binding
Method: Fluorescence measurements of in-situ hybridization kinetics between the immobilized MTFM probes and the locking oligonucleotides at 200 nM. Locking oligonucleotides were added to surfaces presenting the MTFM tension probes at room temperature and allowed to bind to the hairpin for >1 h. Hybridization was monitored by the increase in fluorescence due to hairpin opening.
The selectivity of lock strand binding to unfolded hairpins over folded ones was measured by using model surfaces that either presented a folded MTFM probe or an unstructured single stranded DNA sequence. The unstructured sequence included a complementary region to the 17mer, thus providing a model for the opened state of the MTFM hairpin probes.
Conversely, mechanical stretching of DNA with large values of tension is expected to hinder hybridization. This is because forming the B-form duplex becomes less energetically favorable. Indeed, when F≈40 pN for a 24mer, this created a barrier to hybridization. […] Given that TCR forces are below 19 pN, estimates of mechano-selectivity are justified here.
Based on these criteria, five different locking oligonucleotides were designed that ranged in length from 25mer to 13mer to screen (FIG. 7A). Gold nanoparticle MTFM tension probe surfaces were prepared (FIG. 9). […] The locking oligonucleotides were tested. The 17mer has the most desirable properties (FIG. 7C). To estimate mechano-selectivity, the differential binding of locking strand to MTFM probe at rest to that of an unstructured sequence (mimicking opened state of MTFM probe) were compared.

[4] = system: MTFM tension probes opened by naïve OT-1 T cells; assay: Locking/unlocking of tension probes presenting antiCD3ε in live naïve OT-1 T cells; type: cell-based; conditions: 200 nM unlocking strand
Method: The mechanically opened probes were locked with 200 nM locking strand over 10 min. After rinsing away excess locking strand, the unlocking strand was added at a final concentration of 200 nM, and the tension signal for the same cells was measured as a function of time.
To test locking/unlocking the oligonucleotide complexes in live cells, naïve OT-1 T cells were allowed to adhere and spread on MTFM probe surfaces presenting antiCD3ε antibodies. Cells generated tension signal as the TCR engaged the antibody and transmitted forces to the probes. Subsequently, the Atto647N-tagged locking strand was added for 10 min, washed, and the same T cells were imaged, confirming binding. […] Significant co-localization between the Cy3B (hairpin opening) and the Atto647N (locking strand) signals was found, as evident from linescan analysis and the Pearson's correlation coefficient of 0.72±0.096 (n=20 cells). The excess locking strand was rinsed away before re-imaging. “Erasing” the stored cellular mechanical information was tested. This process was triggered by adding 200 nM unlocking strand to the sample for 2-3 min and confirmed by imaging the same group of T cells. The unlocking process was rapid and reached completion within 60 s. Control experiments using tension probes with a scrambled stem-loop confirmed the specificity of locking real-time tension. […]

[5] = target: OT-1 T-cell receptor (TCR) on OT-1 CD8+ T cells; assay: cell-based or functional assay

Molecule: N4: antigenic pMHC, peptide SIINFEKL (SEQ ID NO: 22), OT-1 TCR antigen derived from chicken ovalbumin
average bond lifetime (TCR [1]; at 10 pN): 800 ms | average bond lifetime (TCR [1]; at zero force): 100 ms | enhancement of the integrated tension signal per cell (TCR [2]; 200 nM unlabeled locking strand, n=16 cells): approximately 189 fold | tension occupancy (TCR [2]; in 10 min after locking strand, F >4.7 pN): 91%

Molecule: locking strand: 17mer locking oligonucleotide GAAAAAAACATTTATAC (SEQ ID NO: 6) that hybridizes to mechanically unfolded hairpin; 8 nt toehold at 3′ end for unlocking (listed as DNA, chemistry not fully specified)
mechano-selectivity: differential binding to MTFM probe at rest vs unstructured sequence [3]: greater than two orders of magnitude | hybridization to the MTFM probes among locking oligonucleotides 13mer to 25mer ([3]; 200 nM, room temperature, >1 h): optimal hybridization | hybridization to the closed hairpin tension probe, incubation without saturation ([3]; closed hairpin tension probe): > 8 h | difference in binding rates (lock binding selectivity between mechanically unfolded and folded probes) ([3]; pseudo first-order kinetics, one-phase association fit, unstructured sequence vs folded MTFM probe): 487 fold | hybridization to the unstructured sequence, time to saturation ([3]; unstructured ssDNA with region complementary to the 17mer): saturated in seconds

Molecule: unlocking strand: strand (SEQ ID NO: 20) that triggers toehold-mediated strand displacement releasing the locking strand (DNA TAGGTAGGGTATAAAATGTTTTTTC; listed as DNA, chemistry not given here)
time to completion of unlocking [4]: ≤ 60 s

Next, values leading:

mechanical sampling factor [5]: 10 fold
Molecule: SIIGFEKL (peptide-MHC, part only; not given: MHC molecule, part only) [mutant pMHC G4 (SIIGFEKL, SEQ ID NO: 24)]

enhancement of the integrated N4 tension signal per cell after locking [5]: 189 fold | force transmitted (hairpin probe threshold) [5]: > 4.7 pN | fraction of antigen mechanically scanned over initial contact area within 10 min migration (ICAM-1/pMHC N4 surface) [5]: 81% | mechanical sampling factor [5]: 165 fold | tension occupancy [5]: 91%
Molecule: SIINFEKL (peptide-MHC, part only; not given: MHC molecule, part only) [antigenic N4 pMHC (peptide SIINFEKL, SEQ ID NO: 22)]

mechanical sampling factor [5]: 33 fold
Molecule: SIIVFEKL (peptide-MHC, part only; not given: MHC molecule, part only) [pMHC V4 (SIIXFEKL, SEQ ID NO: 23, X=V)]

mechanical sampling factor [5]: 66 fold
Molecule: SIIQFEKL (peptide-MHC, part only; not given: MHC molecule, part only) [pMHC Q4 (SIIXFEKL, SEQ ID NO: 23, X=Q)]
